# Data published in patent publication US11911396B2, “Use of compound in preparation of drug for treating cerebral small vessel disease” (GUANGZHOU CELLPROTEK PHARMACEUTICAL CO., LTD, priority 2017, dated 2024).
# Assays:
# Iba-1 = Iba-1 immunohistochemical staining of prefrontal cortex brain tissue, acute hypobaric hypoxia model; type: in vivo, cynomolgus monkeys
# Source text: FIG. 2. Activation of microglia in the brain tissue of the prefrontal cortex of cynomolgus monkeys. A. Iba-1 immunohistochemical staining of the brain tissue of the prefrontal cortex of cynomolgus monkeys, Iba-1 serves as a marker for microglia activation. The black scale bar is 25 μm and the red scale bar is 200 μm. B. Statistics of Iba-1 relative optical density values. Image pro plus software was used to perform optical density scanning on the immunohistochemical images of each group to obtain the optical density values, which were then normalized with the NN group. NN: Normobaric Normoxia group (n=4); HH: Hypobaric Hypoxia group (n=4); HH+Triol: Hypobaric Hypoxia with Triol administration group (n=3); HH+PROG: Hypobaric Hypoxia with control drug administration group (n=4). […]
# The experiment was carried out according to routine immunohistochemical procedures, as follows: the thickness of paraffin sections of prefrontal cortex tissue of cynomolgus monkeys was 5 μm, and fresh paraffin sections were baked overnight at 37° C. […] Imaging: Nikon ECLIPSE Ti-U inverted fluorescence microscope was used to take pictures of the sections in the bright field, by adjusting the appropriate exposure intensity and background white balance, and fixing the shooting adjustments to take pictures of each group of slices from multiple views and by multiples folds. […]
# Iba-1 in microglia BV2 = test: Western blot of Iba-1 in BV2 cells stimulated with hemoglobin and hypoxia, with or without CD163 RNA interference; type: cell-based; settings: 10 μM Triol, 20 μM hemoglobin and 1% hypoxia for 6 hours
# Method: FIG. 7. […] According to the manufacturer's instructions, RNAiMAX was used to transfect CD163 No. 01 and scrambled interference fragment NC respectively to BV2 cells, BV2 cell culture medium was then added with or without 10 μM Triol, and BV2 cells were stimulated with 20 μM hemoglobin and 1% hypoxia for 6 hours, after which protein samples were collected, and the expression of microglial activation markers Iba-1 and CD11b was detected by Western blot.
# 1) Preparation of protein samples (see the instructions of M-PER protein lysate): After the cells had been processed for the specified time, the medium was aspirated and then washed with 4° C. pre-chilled PBS (0.01M pH7.2˜7.3) for 3 times. 150-200 ul of M-PER protein lysate mixed with protease inhibitor (PMSF 100×) was added, which was lysed on ice for 10 minutes to fully lyse the cells. […] 2) BCA protein quantification (see the instructions of BCA protein quantification kit): corresponding components were added to a 96-well detection plate by the ratio of quantification reagent A solution:B solution:ddH2O:protein=100:2:7.5:5, and albumin standards diluted in gradient concentration were added to draw a standard curve. […] After the reaction, the absorbance of each well at a wavelength of 562 nm was detected using a microplate reader. […]
smiles,measurement,setting,value
"C[C@@]12CCCC1C1C[C@@H](O)[C@@]3(O)C[C@@H](O)CC[C@]3(C)C1CC2 (stereo partly drawn) [Triol, 5α-androst-3β,5,6β-triol]",number of cells in the activation-like morphology (microglia),Iba-1; FIG. 2,decreased
same,expression of Iba-1,"Iba-1; immunohistochemistry, FIG. 2B",decreased significantly
same,effect on the up-regulation of Iba-1 in hypoxia and hemoglobin-activated microglia cells,Iba-1 in microglia BV2; without CD163 interference,inhibitory effect
same,inhibitory effect on the up-regulation of Iba-1 after interfering CD163,"Iba-1 in microglia BV2; CD163 RNA interference, FIG. 7",cancelled
